Activity calls are given as the source filed them. The calls are words filed in the database; no cut-off is given here.
How the values were obtained:
Type in all cases: nucleic-acid assay
Nucleic Acid [1] = test: Binding affinity to D3 ssDNA aptamer
Nucleic Acid [2] = test: Binding affinity to D16 ssDNA aptamer
Nucleic Acid [3] = test: Binding affinity to D22 ssDNA aptamer
Nucleic Acid [4] = test: Binding affinity to D10/DA24 ssDNA aptamer

Activity (Nucleic Acid [1]) | Activity (Nucleic Acid [2]) | Activity (Nucleic Acid [3]) | Kd (Nucleic Acid [1]) | Kd (Nucleic Acid [2]) | Kd (Nucleic Acid [4]) | Kd (Nucleic Acid [3]) | Compound
inactive | Active | Active |  |  |  |  | O=C(O)Cc1ccccc1Nc1ccccc1
 |  |  | 42.7 nM | 149 nM | 101 nM | 166 nM | O=C(O)Cc1ccccc1Nc1c(Cl)cccc1Cl [DICLOFENAC]
